The values that follow come from article PMC4669708 (Cell Death & Disease, 2015).

Molecules are shown by their SMILES.

Experiment in all cases: c-ponatinib pulldown LC-MS/MS
What all share (assay type): binding

In one assay the target is HSPA5 (Homo sapiens, UniProt P11021). The method in brief: (§1)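 Read-out: interaction P-value combining Mascot scores, Phenyx scores and spectral counts (Fisher's method), plus fold reduction of median spectral counts on free-compound competition. Proteins were enriched from 10 mg cell lysate on c-ponatinib beads, then trypsin-digested for LC-MS/MS.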
HSPA5, sequence (P11021 19-654): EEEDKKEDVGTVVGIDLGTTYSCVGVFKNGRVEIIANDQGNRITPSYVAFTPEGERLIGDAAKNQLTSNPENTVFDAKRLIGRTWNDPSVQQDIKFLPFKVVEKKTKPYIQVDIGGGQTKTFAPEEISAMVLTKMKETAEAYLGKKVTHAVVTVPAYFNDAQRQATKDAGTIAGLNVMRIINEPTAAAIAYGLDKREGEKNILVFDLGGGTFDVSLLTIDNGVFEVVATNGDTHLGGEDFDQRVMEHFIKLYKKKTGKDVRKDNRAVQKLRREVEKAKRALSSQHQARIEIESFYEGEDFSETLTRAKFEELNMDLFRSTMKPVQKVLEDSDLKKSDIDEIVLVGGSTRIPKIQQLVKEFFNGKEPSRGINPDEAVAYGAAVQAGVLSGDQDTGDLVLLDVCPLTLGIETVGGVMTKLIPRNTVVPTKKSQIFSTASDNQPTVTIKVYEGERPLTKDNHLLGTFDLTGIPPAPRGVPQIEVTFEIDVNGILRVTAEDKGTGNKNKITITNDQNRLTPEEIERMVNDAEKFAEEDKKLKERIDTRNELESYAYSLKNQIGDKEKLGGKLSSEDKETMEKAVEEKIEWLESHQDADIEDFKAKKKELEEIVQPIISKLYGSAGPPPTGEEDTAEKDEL
The target of a further assay is T1, CCT2 (Homo sapiens, UniProt P78371).
T1 sequence (P78371 1-535): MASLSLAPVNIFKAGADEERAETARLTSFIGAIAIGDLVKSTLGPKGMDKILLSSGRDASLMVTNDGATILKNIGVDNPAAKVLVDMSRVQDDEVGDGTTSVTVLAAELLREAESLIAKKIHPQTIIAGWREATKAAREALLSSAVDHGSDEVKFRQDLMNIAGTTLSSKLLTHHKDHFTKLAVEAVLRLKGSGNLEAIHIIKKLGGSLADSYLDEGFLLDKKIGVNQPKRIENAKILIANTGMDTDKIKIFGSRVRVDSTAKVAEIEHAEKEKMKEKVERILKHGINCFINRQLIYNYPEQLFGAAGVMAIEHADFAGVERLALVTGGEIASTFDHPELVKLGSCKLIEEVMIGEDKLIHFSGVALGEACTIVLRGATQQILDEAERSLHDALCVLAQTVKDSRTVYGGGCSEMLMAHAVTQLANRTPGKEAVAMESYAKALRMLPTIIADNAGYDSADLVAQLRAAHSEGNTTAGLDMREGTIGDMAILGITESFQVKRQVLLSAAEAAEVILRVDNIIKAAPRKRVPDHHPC
The procedure, abridged:
as §1

The next assay has as its target ABL1 (Homo sapiens, UniProt P00519). The procedure, abridged: as §1
The target in the next assay is T2, CCT4 (Homo sapiens, UniProt P50991).
T2 sequence (P50991 1-539): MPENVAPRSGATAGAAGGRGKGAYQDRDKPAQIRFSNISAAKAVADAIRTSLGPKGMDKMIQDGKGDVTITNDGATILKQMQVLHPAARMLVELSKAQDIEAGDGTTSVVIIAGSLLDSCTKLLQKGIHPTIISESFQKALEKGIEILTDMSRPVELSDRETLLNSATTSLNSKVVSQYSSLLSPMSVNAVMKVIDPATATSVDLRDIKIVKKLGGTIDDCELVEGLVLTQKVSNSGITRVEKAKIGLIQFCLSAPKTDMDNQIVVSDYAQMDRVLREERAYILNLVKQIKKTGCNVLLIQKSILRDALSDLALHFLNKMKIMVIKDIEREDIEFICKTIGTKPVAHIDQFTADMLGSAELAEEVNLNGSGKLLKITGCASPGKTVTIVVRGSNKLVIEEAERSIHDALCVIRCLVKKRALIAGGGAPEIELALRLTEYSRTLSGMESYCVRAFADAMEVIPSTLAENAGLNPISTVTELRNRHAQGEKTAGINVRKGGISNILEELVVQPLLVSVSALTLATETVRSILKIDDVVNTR
The procedure, abridged: as §1

The target of another assay is MAPK14 (Homo sapiens, UniProt Q16539). The procedure, abridged:
as §1

The target of a further assay is CDK8 (Homo sapiens, UniProt P49336). The method in brief:
as §1

CDK8, sequence (P49336 whole entry): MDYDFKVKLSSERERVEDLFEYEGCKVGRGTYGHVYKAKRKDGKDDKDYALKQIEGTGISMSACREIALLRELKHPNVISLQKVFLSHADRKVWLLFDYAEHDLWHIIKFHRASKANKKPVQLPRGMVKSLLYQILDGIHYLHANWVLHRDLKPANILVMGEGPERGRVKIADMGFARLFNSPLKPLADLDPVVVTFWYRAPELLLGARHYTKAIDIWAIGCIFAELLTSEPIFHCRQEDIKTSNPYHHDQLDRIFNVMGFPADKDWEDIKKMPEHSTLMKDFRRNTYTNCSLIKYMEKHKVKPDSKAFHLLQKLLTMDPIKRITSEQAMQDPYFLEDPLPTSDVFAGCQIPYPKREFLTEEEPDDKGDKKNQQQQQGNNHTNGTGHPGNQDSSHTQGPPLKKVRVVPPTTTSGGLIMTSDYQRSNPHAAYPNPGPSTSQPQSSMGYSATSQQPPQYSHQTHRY
CDK8, sequence (P24863 whole entry partner): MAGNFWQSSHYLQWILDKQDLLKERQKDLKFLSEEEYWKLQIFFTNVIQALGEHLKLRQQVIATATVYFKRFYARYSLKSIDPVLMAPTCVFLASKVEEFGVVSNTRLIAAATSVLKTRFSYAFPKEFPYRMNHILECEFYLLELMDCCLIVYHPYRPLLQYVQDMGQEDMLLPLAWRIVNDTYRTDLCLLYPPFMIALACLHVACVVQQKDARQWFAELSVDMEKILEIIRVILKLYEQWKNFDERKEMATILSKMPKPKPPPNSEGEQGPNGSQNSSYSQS
MAPK14, sequence (Q16539 whole entry): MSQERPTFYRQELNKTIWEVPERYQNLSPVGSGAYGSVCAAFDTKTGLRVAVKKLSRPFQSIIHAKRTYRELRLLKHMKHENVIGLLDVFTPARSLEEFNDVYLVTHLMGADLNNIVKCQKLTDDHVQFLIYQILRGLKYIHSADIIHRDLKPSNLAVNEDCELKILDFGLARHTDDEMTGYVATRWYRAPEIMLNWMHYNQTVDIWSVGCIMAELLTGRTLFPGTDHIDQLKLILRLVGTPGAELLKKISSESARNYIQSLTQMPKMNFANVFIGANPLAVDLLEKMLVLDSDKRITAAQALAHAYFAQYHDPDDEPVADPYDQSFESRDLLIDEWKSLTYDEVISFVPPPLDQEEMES
ABL1, sequence (P00519 whole entry): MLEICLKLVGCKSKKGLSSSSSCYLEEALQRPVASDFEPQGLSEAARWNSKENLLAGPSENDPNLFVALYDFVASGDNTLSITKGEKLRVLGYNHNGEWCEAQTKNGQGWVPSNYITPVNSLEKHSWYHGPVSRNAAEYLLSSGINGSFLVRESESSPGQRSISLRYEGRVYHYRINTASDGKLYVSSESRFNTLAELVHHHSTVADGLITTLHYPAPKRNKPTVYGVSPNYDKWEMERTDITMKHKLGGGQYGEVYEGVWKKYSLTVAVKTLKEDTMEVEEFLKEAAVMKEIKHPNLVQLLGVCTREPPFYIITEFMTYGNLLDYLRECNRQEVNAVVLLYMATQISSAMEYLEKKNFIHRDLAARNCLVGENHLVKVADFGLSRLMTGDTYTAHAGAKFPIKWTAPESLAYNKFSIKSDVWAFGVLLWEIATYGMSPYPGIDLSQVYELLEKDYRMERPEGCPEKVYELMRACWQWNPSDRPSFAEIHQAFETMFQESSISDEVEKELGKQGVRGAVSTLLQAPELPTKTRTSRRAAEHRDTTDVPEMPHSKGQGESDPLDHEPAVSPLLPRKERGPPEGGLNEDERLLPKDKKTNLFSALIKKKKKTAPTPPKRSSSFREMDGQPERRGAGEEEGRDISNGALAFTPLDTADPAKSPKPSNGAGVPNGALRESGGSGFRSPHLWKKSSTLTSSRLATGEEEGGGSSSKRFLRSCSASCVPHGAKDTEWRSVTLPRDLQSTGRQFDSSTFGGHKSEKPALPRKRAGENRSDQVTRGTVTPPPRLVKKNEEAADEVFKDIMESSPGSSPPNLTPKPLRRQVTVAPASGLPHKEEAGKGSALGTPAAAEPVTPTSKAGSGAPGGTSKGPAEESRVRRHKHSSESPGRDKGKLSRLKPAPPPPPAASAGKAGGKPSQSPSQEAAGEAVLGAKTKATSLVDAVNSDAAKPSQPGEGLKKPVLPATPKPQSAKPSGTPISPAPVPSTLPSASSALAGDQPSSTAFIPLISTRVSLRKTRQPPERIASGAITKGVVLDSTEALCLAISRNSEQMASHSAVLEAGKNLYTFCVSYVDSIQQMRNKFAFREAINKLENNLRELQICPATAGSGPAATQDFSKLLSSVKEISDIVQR

Take `Cc1ccc(C(=O)Nc2ccc(CN3CCN(CCCN)CC3)c(C(F)(F)F)c2)cc1C#Cc1cnc2cccnn12` [c-ponatinib]: the “Av. SC comp.” value at HSPA5 (+ free ponatinib) came to 2.75; at CCT2 (+ free ponatinib), 0; on ABL1 (+ free ponatinib) it was 0; at CCT4 (+ free ponatinib), 0; at MAPK14 (+ free ponatinib) it was 7.25; at CDK8 (+ free ponatinib), 0. The “Total SC comp.” value is given as 11 on HSPA5 (+ free ponatinib); 0 on CCT2 (+ free ponatinib); 0 on ABL1 (+ free ponatinib); 0 at CCT4 (+ free ponatinib); 29 on MAPK14 (+ free ponatinib); 0 at CDK8 (+ free ponatinib). Besides, the “Av. SC” value stood at 7 at HSPA5 (no competitor); 3.5 on CCT2 (no competitor); 13.75 on ABL1 (no competitor); 3.5 on CCT4 (no competitor); 79.25 at MAPK14 (no competitor); 3.75 on CDK8 (no competitor). Also, the “Total SC” value came to 28 at HSPA5 (no competitor); 14 on CCT2 (no competitor); 55 on ABL1 (no competitor); 14 at CCT4 (no competitor); 317 on MAPK14 (no competitor); 15 at CDK8 (no competitor).
